PubChem BioAssay (NCI)
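96-well plates; 48 h exposure; 5 concentrations. Endpoints by linear interpolation between flanking doses. Not reached: highest tested concentration assigned. TGI: total growth inhibition.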

Key:
Test in all cases: NCI tumour cell line growth inhibition, 48 h
SNB-19 CNS = system: SNB-19 CNS
M19-MEL melanoma = system: M19-MEL melanoma
OVCAR-5 ovarian = system: OVCAR-5 ovarian
HOP-92 NSCLC = system: HOP-92 NSCLC
UACC-257 melanoma = system: UACC-257 melanoma
NCI-H23 lung = system: NCI-H23 lung
NCI-H522 lung = system: NCI-H522 lung
MOLT-4 leukemia = system: MOLT-4 leukemia
OVCAR-3 ovarian = system: OVCAR-3 ovarian
HL-60(TB) leukemia = system: HL-60(TB) leukemia
DMS 114 small cell lung = system: DMS 114 small cell lung
A549 NSCLC = system: A549 NSCLC
SF-539 CNS = system: SF-539 CNS
HT29 colon = system: HT29 colon
SK-OV-3 ovarian = system: SK-OV-3 ovarian
HOP-62 NSCLC = system: HOP-62 NSCLC
M14 melanoma = system: M14 melanoma
SF-268 CNS = system: SF-268 CNS
LOX IMVI melanoma = system: LOX IMVI melanoma
DLD-1 colon = system: DLD-1 colon
HCC-2998 colon = system: HCC-2998 colon
K-562 leukemia = system: K-562 leukemia
CCRF-CEM leukemia = system: CCRF-CEM leukemia
MALME-3M melanoma = system: MALME-3M melanoma
RXF-631 renal = system: RXF-631 renal
EKVX NSCLC = system: EKVX NSCLC
UO-31 renal = system: UO-31 renal
SR leukemia = system: SR leukemia
RXF 393 renal = system: RXF 393 renal
SF-295 CNS = system: SF-295 CNS
786-0 renal = system: 786-0 renal
DMS 273 small cell lung = system: DMS 273 small cell lung
SNB-78 CNS = system: SNB-78 CNS
OVCAR-8 ovarian = system: OVCAR-8 ovarian
CAKI-1 renal = system: CAKI-1 renal
XF 498 CNS = system: XF 498 CNS
SK-MEL-2 melanoma = system: SK-MEL-2 melanoma
LXFL 529 NSCLC = system: LXFL 529 NSCLC
U251 CNS = system: U251 CNS
NCI-H226 lung = system: NCI-H226 lung
SN12C renal = system: SN12C renal
HCT-116 colon = system: HCT-116 colon
COLO 205 colon = system: COLO 205 colon
ACHN renal = system: ACHN renal
HOP-18 NSCLC = system: HOP-18 NSCLC
A498 renal = system: A498 renal
OVCAR-4 ovarian = system: OVCAR-4 ovarian
UACC-62 melanoma = system: UACC-62 melanoma
SK-MEL-28 melanoma = system: SK-MEL-28 melanoma
SNB-75 CNS = system: SNB-75 CNS
SK-MEL-5 melanoma = system: SK-MEL-5 melanoma
KM12 colon = system: KM12 colon
NCI-H460 lung = system: NCI-H460 lung
TK-10 renal = system: TK-10 renal
RPMI-8226 leukemia = system: RPMI-8226 leukemia
HCT-15 colon = system: HCT-15 colon
KM20L2 colon = system: KM20L2 colon
IGROV1 ovarian = system: IGROV1 ovarian
SW-620 colon = system: SW-620 colon
SN12K1 renal = system: SN12K1 renal
NCI/ADR-RES ovarian = system: NCI/ADR-RES ovarian
MCF7 breast = system: MCF7 breast
P388 leukemia = system: P388 leukemia

## O=C(O)/C=C\C(=O)c1ccc(Cl)cc1
SNB-19 CNS
  TGI: > 100 µM
M19-MEL melanoma
  TGI: 55.8 µM
OVCAR-5 ovarian
  TGI: > 100 µM
HOP-92 NSCLC
  TGI: 47.8 µM
UACC-257 melanoma
  TGI: 38 µM
NCI-H23 lung
  TGI: > 86.7 µM
NCI-H522 lung
  TGI: > 100 µM
MOLT-4 leukemia
  TGI: 49 µM
OVCAR-3 ovarian
  TGI: > 73.3 µM
HL-60(TB) leukemia
  TGI: 58.5 µM
DMS 114 small cell lung
  TGI: 55.4 µM
A549 NSCLC
  TGI: > 100 µM
SF-539 CNS
  TGI: 54.2 µM
HT29 colon
  TGI: > 64.9 µM
SK-OV-3 ovarian
  TGI: > 100 µM
HOP-62 NSCLC
  TGI: > 100 µM
M14 melanoma
  TGI: 33.2 µM
SF-268 CNS
  TGI: > 71.1 µM
LOX IMVI melanoma
  TGI: > 61.7 µM
DLD-1 colon
  TGI: > 100 µM
HCC-2998 colon
  TGI: > 100 µM
K-562 leukemia
  TGI: 82.8 µM
CCRF-CEM leukemia
  TGI: 48.7 µM
MALME-3M melanoma
  TGI: 34.5 µM
RXF-631 renal
  TGI: > 100 µM
EKVX NSCLC
  TGI: > 94 µM
UO-31 renal
  TGI: 99.8 µM
SR leukemia
  TGI: 52.2 µM
RXF 393 renal
  TGI: 40.5 µM
SF-295 CNS
  TGI: > 100 µM
786-0 renal
  TGI: > 78.7 µM
DMS 273 small cell lung
  TGI: > 31.6 µM
SNB-78 CNS
  TGI: > 100 µM
OVCAR-8 ovarian
  TGI: > 100 µM
CAKI-1 renal
  TGI: 47.2 µM
XF 498 CNS
  TGI: > 76.6 µM
SK-MEL-2 melanoma
  TGI: > 76.8 µM
LXFL 529 NSCLC
  TGI: 48.4 µM
U251 CNS
  TGI: > 100 µM
NCI-H226 lung
  TGI: > 87.6 µM
SN12C renal
  TGI: > 100 µM
HCT-116 colon
  TGI: > 58.8 µM
COLO 205 colon
  TGI: 34.9 µM
ACHN renal
  TGI: 73.3 µM
HOP-18 NSCLC
  TGI: > 100 µM
A498 renal
  TGI: > 100 µM
OVCAR-4 ovarian
  TGI: > 100 µM
UACC-62 melanoma
  TGI: > 75.4 µM
SK-MEL-28 melanoma
  TGI: 34.7 µM
SNB-75 CNS
  TGI: > 79 µM
SK-MEL-5 melanoma
  TGI: > 100 µM
KM12 colon
  TGI: 98.9 µM
NCI-H460 lung
  TGI: > 100 µM
TK-10 renal
  TGI: > 100 µM
RPMI-8226 leukemia
  TGI: 66.7 µM
HCT-15 colon
  TGI: 50.2 µM
KM20L2 colon
  TGI: > 74.7 µM
IGROV1 ovarian
  TGI: > 100 µM
SW-620 colon
  TGI: 50.1 µM

## COc1cc([C@@H]2c3cc4c(c(O[C@@H]5O[C@H]6CO[C@@H](C)O[C@H]6[C@H](O)[C@@H]5O)c3C[C@H]3COC(=O)[C@@H]32)OCO4)cc(OC)c1O
SNB-19 CNS
  TGI: > 100 µM
M19-MEL melanoma
  TGI: > 100 µM
SN12K1 renal
  TGI: > 45.1 µM
OVCAR-5 ovarian
  TGI: > 100 µM
HOP-92 NSCLC
  TGI: > 100 µM
UACC-257 melanoma
  TGI: > 100 µM
NCI-H23 lung
  TGI: > 100 µM
NCI-H522 lung
  TGI: 6.42 µM
MOLT-4 leukemia
  TGI: > 100 µM
NCI/ADR-RES ovarian
  TGI: 37.1 µM
OVCAR-3 ovarian
  TGI: 20.6 µM
HL-60(TB) leukemia
  TGI: > 38.9 µM
DMS 114 small cell lung
  TGI: > 31.1 µM
A549 NSCLC
  TGI: > 100 µM
SF-539 CNS
  TGI: 7.79 µM
HT29 colon
  TGI: > 100 µM
SK-OV-3 ovarian
  TGI: > 92.9 µM
HOP-62 NSCLC
  TGI: > 100 µM
SF-268 CNS
  TGI: > 79.5 µM
LOX IMVI melanoma
  TGI: > 100 µM
DLD-1 colon
  TGI: > 100 µM
HCC-2998 colon
  TGI: > 81.1 µM
K-562 leukemia
  TGI: > 100 µM
CCRF-CEM leukemia
  TGI: > 100 µM
MALME-3M melanoma
  TGI: > 100 µM
EKVX NSCLC
  TGI: > 100 µM
UO-31 renal
  TGI: > 100 µM
RXF 393 renal
  TGI: > 100 µM
MCF7 breast
  TGI: > 100 µM
SF-295 CNS
  TGI: 22.5 µM
DMS 273 small cell lung
  TGI: > 100 µM
SNB-78 CNS
  TGI: > 100 µM
OVCAR-8 ovarian
  TGI: > 100 µM
XF 498 CNS
  TGI: > 100 µM
SK-MEL-2 melanoma
  TGI: > 100 µM
U251 CNS
  TGI: > 46.8 µM
NCI-H226 lung
  TGI: 20.8 µM
SN12C renal
  TGI: > 100 µM
HCT-116 colon
  TGI: > 44.6 µM
COLO 205 colon
  TGI: > 100 µM
HOP-18 NSCLC
  TGI: > 100 µM
A498 renal
  TGI: > 100 µM
OVCAR-4 ovarian
  TGI: > 53.3 µM
UACC-62 melanoma
  TGI: > 100 µM
P388 leukemia
  TGI: 4.82 µM
SK-MEL-28 melanoma
  TGI: > 100 µM
SNB-75 CNS
  TGI: > 100 µM
SK-MEL-5 melanoma
  TGI: > 100 µM
KM12 colon
  TGI: > 79.6 µM
NCI-H460 lung
  TGI: > 100 µM
RPMI-8226 leukemia
  TGI: > 100 µM
HCT-15 colon
  TGI: > 100 µM
KM20L2 colon
  TGI: > 100 µM
IGROV1 ovarian
  TGI: > 100 µM
SW-620 colon
  TGI: > 100 µM
